# Test results: patent US20210213010A1, “TLR7/8 AGONISTS AND LIPOSOME COMPOSITIONS” (Torque Therapeutics, Inc., priority 2018, published 2021)
# Entries after “also recorded” stand apart in the source; their conditions may differ.
# What was measured:
# B16-F10 tumor [1] = assay: B16-F10 tumor model with adoptive cell transfer of PMEL cells (Example 80); assay type: in vivo, mouse; conditions: for Weight of tumor bearing mice: versus HBSS, PMEL alone and PMEL loaded with Gdq liposomes
# Protocol: Spleens and lymphnodes were harvested from PMEL mice (B6. Cg-Thy1^a/Cy Tg(TcraTcrb)8Rest/J, Jackson Labs) and CD8 T cells purified by Mylteni MACS T cell separation kit. PMEL cells were stimulated and expanded on anti-CD3/CD28 coated plates with mouse IL2/IL7/IL21 cytokines, harvested and loaded with liposomes for evaluation in vivo. PMEL cells at 50×10^6/mL were incubated with liposomes at 10 mM lipid concentration for 60 minutes at 37 C, washed twice and formulated in HBSS prior to injection into the mice. In vivo study details show below. Briefly, 100 ul of 0.5×10^6 B16-F10 cells formulated in HBSS were injected SubQ (SQ) or intra-dermal (ID) and grown for 9 days prior to treatment. 1 day prior to treatment, 4 mg/mouse of cyclophosphamide (CPX) was injected intraperitoneal (IP) with 200 ul at 20 mg/mL in phosphate buffered saline (PBS). There were 10 mice used per group and all treatments were injected intravenous (IV) via tail vein injection, the groups were as follows: • HBSS alone (single dose) • 20×10^6 PMEL cells/mouse (single dose) • 20×10^6 PMEL cells/mouse backpacked with 2.5 antiCD45 Ab/liposome, 10% DOTAP, 35% cholersterol, 0.6% DSPE-PEG, POPC, pH gradient loaded as previously described with Gardiquimod (˜200 nmol Gardiquimod/mouse, single dose) • 20×10^6 PMEL cells/mouse followed by 4 mg/kg Gardiquimod systemically on day 0 (treatment day, day 6, day 13, day 25 • 20×10^6 PMEL cells/mouse followed by 2 mg/kg KRJ2-110 systemically on day 0 (treatment day), day 6, day 13, day 25
# [2] = Cytokine/chemokine release kinetics in blood of non-tumor bearing B6D2F1/J mice (Luminex); assay type: in vivo, mouse; conditions: single dose; 4 mg/kg Gdq or 2 mg/kg KRJ2-110 systemic, or loaded PMEL cells; 0-24 hr
# Protocol: Spleens and lymphnodes were harvested from PMEL mice (B6. Cg-Thy1^a/Cy Tg(TcraTcrb)8Rest/J, Jackson Labs) and CD8 T cells purified by Mylteni MACS T cell separation kit. PMEL cells were stimulated and expanded on anti-CD3/CD28 coated plates with mouse IL2/IL7/IL21 cytokines and harvested for use. The cytokine/chemokine release profile in non-tumor bearing B6D2F1/J mice (Jackson Labs) was evaluated by injecting: • 20×10^6 PMEL cells alone, 20×10^6 PMEL cells loaded with 2.5 ant-CD45 Ab/liposome, 10% DOTAP, 35% cholesterol, 0.6% DSPE-PEG, POPC liposomes Gardiquimod pH gradient loaded as previously described (˜200 nmol gardiquimod, single dose) • 4 mg/kg Gdq systemic (no PMEL, single dose) • 2 mg/kg KRJ2-110 systemic (no PMEL, single dose)
# Blood was drawn at 0, 0.25, 0.5, 1, 2, 4, 6, 10 and 24 hr and plasma was recovered for cytokine/chemokine quantitation using a Luminex kit. […] IP10 and TNFa are commonly used biomarkers for TLR7 agonists in human studies indicating these may be useful biomarkers in clinical studies for T cells loaded with TLR7 agonists.
# RAW Blue cells = assay: Potency of TLR7 agonist compound library in RAW Blue TLR reporter cells; assay type: cell-based; conditions: fold more potent
# Protocol: A general synthesis scheme is shown in FIG. 1A according to the procedure by Wu et al. Immunotherapeutic activity of a conjugate of a Toll-like receptor 7 ligand. Proc. Natl. Acad. Sci. 104, 3990-3995 (2007), with some modifications and in good yields. Final derivatization using standard amide bond formation or reductive amination conditions, gave the desired library of 22 compounds divided into two sets (set 1, 1a-1j and set 2, 2a-2j). Next it was evaluated if the synthesized compounds had retained their activity upon derivatization. As benchmarks, the known TLR agonists Gardiquimod (Gdq, TLR7) and Resiquimod (R848, TLR7/8) were used.
# [3] = Cryo-TEM of remote loaded liposomes (intraliposomal precipitation); assay type: physicochemical; conditions: remote loaded liposomes, Example 75
# Protocol: CryoTEM samples of 3 μL of liposome solution was placed on a lacy carbon 300 mesh copper TEM grid, blotted and plunge frozen in liquid ethane using a FEI Vitrobot Mark IV. Samples were imaged using a FEI Tecnai G2 20 TWIN transmission electron microscope operated at 200 keV in low dose mode with a FEI High-Sensitive (HS) 4 k×4 k Eagle camera.
# B16-F10 tumor [4] = assay: In vivo immune profiling by flow cytometry in B16-F10 tumor bearing mice (Example 87); set-up: species or system mouse
# Protocol: Spleens and lymphnodes were harvested from PMEL mice (B6. Cg-Thy1^a/Cy Tg(TcraTcrb)8Rest/J, Jackson Labs) and CD8 T cells purified by Mylteni MACS T cell separation kit. PMEL cells were stimulated and expanded on anti-CD3/CD28 coated plates with mouse IL2/IL7/IL21 cytokines, harvested and loaded with liposomes for evaluation in vivo. PMEL cells at 50×10^6/mL were incubated with liposomes at 10 mM lipid concentration for 60 minutes at 37 C, washed twice and formulated in HBSS prior to injection into the mice. Briefly, 100 ul of 1×10^6 B16-F10 cells formulated in HBSS were injected SubQ (SQ) and grown for 10 days prior to treatment. 1 day prior to treatment, 4 mg/mouse of cyclophosphamide (CPX) was injected intraperitoneal (IP) with 200 ul at 20 mg/mL in phosphate buffered saline (PBS). There were 10 mice used per group and all treatments were injected intravenous (IV) via tail vein injection, the groups were as follows: • HBSS alone (single dose) • 20×10^6 PMEL cells/mouse (single dose) • 20×10^6 PMEL cells/mouse backpacked with 1.5% Arg3-Chol, 10% DSTAP, 35% cholesterol, 0.5% DSPE-PEG, DSPC, pH gradient loaded as previously described with KRJ2-110 (single dose) • 20×10^6 PMEL cells/mouse followed by 2 mg/kg KRJ2-110 systemically on day 0 (small molecule delivered 1 hr after cell dose)
# Blood was sampled at 24 hr, 4 days and 7 days for plasma isolation and cytokine/chemokine characterization by Luminex. Tissues and organs were harvested on day 4 and 7 for analysis by flow cytometry and Luminex.
# [5] = amine in conjugation with the aromatic system; cited from earlier work
# RAW-Blue cells = assay: NF-κB induction in RAW-Blue reporter cells (RAW 264.7 macrophages, SEAP); assay type: cell-based; conditions: RAW-Blue; sigmoidal 4PL fitting, 24 h
# Summary of the method: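 RAW 264.7 macrophages with NF-κB-inducible SEAP, 100×10^3 cells/well, exposed to compound dilutions (from DMSO stocks in PBS) for 24 h at 37 °C, triplicate. Supernatant SEAP read with QUANTI-Blue at 640 nm after 3–6 h, normalized to DMSO blank; EC50 from 4PL fits.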
# whole human blood [6] = assay: IL-12p40 cytokine expression in stimulated whole human blood (ELISA); assay type: cell-based; conditions: drug/lipid ratio 0.1
# Protocol: (§1) This example describes the general procedure used to assess the level of cytokine IL-6 and IL-12p40 expressions upon stimuli of whole human blood with small molecules or small molecules in liposomal formulations F1 and F2. 10 mM DMSO solutions of the small molecules were diluted in RPMI media (RPMI-1640, Sigma Aldrich) with 1% penicillin/streptomycin (p/s). […], of each dilution was transferred to Nunc™ 96-Well Polystyrene Conical Bottom MicroWell™ Plates in duplicates. Blood was drawn from two human donors, diluted in RPMI with 1% p/s and added to each well to reach final concentrations of 10 μM, 1 μM, and 0.1 μM of the small molecules. The plates were incubated at 37° C. in a cell incubator for 24h. The plates were then spun down in a plate centrifuge with 3200 revolutions per minute (rpm) for 10 min before 50 uL of the supernatant was transferred to new 96-well plates. The supernatant samples were subsequently stored at −80° C. until the day of cytokine measurements.
# (§2) The level of cytokine expression was measured using either an IL-6 ELISA Kit (RnDSystems, cat #DY206) for IL-6, or an IL-12p40 ELISA Kit (RnDSystems, cat #DY1240) according to the manufacturer's protocols. This general procedure was used to generate the examples 24-33.
# [7] = Remote loading efficiency of small molecules into liposomes (PD-10 size exclusion, HPLC); assay type: physicochemical; conditions: for Remote loading efficiency 1 h (%): drug/lipid ratio 0.10, 1 h; for Remote loading efficiency 3 h (%): drug/lipid ratio 0.10, 3 h
# Summary of the method: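 A lyophilized small-molecule powder (modified TLR agonist) was combined with liposome formulation at the desired drug/lipid ratio and stirred at elevated temperature. At 1 h and 3 h, 100 μL of mixture plus 900 μL buffer (25 mM HEPES, 10 vol % sucrose, pH 7.4) went onto a PD-10 size exclusion column. Ten 1 mL fractions were collected, and HPLC quantified compound in the liposome fractions as a percentage of the amount applied.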
# whole human blood [8] = assay: IL-6 cytokine expression in stimulated whole human blood (ELISA); assay type: cell-based
# Protocol: as §1, §2
smiles,measurement,setting,value
"COCCOc1nc(N)c2nc(O)n(Cc3ccc(CN)cc3)c2n1 [KRJ2-110, 6-amino-9-(4-(aminomethyl)benzyl)-2-(2-methoxyethoxy)-9H-purin-8-ol]",B16-F10 tumor growth after adoptive cell transfer,"B16-F10 tumor [1]; PMEL cells plus 2 mg/kg KRJ2-110 or 4 mg/kg Gardiquimod systemically, or liposome loaded PMEL",more efficacious
same,Weight of tumor bearing mice,B16-F10 tumor [1],more substantial weight loss
same,"Proinflammatory cytokines such as IFNg, IL12 in blood",[2],significant increase in proinflammatory cytokines
same,In vitro potency in a RAW cell assay relative to Gardiquimod,RAW Blue cells,~10 ×
same,Crystallization within liposomes (Cryo-TEM),[3],crystallizes inside the liposomes
same,Activation of PMEL T cells in LN,B16-F10 tumor [4]; 4 and 7 days after ACT,Increases activation of PMEL T cells in LN
same,Exhaustion of PMEL cells (PD1+/LAG3+),B16-F10 tumor [4]; 4 and 7 days after ACT,Slightly increases exhaustion
same,MHCII expression in the tumor,B16-F10 tumor [4]; 4 and 7 days after ACT,Increases MHCII expression in the tumor
same,Monocytic and Granulocytic MDSC density in the tumor,B16-F10 tumor [4]; 7 days after ACT,Does not markedly affect MDSC
same,Abundance of cDC1 and pDC in the tumor,B16-F10 tumor [4]; after ACT,Transiently increases the abundance of cDC1 and pDC
same,Proliferation of PMEL T cells (Ki67),"B16-F10 tumor [4]; blood, spleen and tumor, 4 days after ACT",Virtually no effect on PMEL T cell proliferation
"CCOCc1nc2c(N)nc3ccccc3c2n1CC(C)(C)O [R848, Resiquimod, reference compound]",pKa of the conjugate acid,[5],approximately 4
same,EC50,RAW-Blue cells,150 nM
"CCNCc1nc2c(N)nc3ccccc3c2n1CC(C)(C)O [Gardiquimod, reference compound]",Weight of tumor bearing mice,B16-F10 tumor [1],more substantial weight loss
same,"Proinflammatory cytokines such as IFNg, IL12 in blood",[2],significant increase in proinflammatory cytokines
same,Expression of IL-12p40 upon stimulation of whole human blood,"whole human blood [6]; remote loaded in formulation F1, HEPES","none of the small molecules Gardiquimod, MK087, MK088, and MK089 were capable of inducing expression of IL-12p40"
same,Expression of IL-12p40 upon stimulation of whole human blood,"whole human blood [6]; remote loaded in formulation F2, HEPES",capable of inducing expression of IL-12p40 in one donor at 10 μM
same,EC50,RAW-Blue cells,1670 nM
same,Remote loading efficiency 1 h (%),"[7]; formulation F1, HEPES",89%
same,Remote loading efficiency 3 h (%),"[7]; formulation F1, HEPES",92%
same,Remote loading efficiency 1 h (%),"[7]; formulation F2, HEPES",89%
same,Remote loading efficiency 3 h (%),"[7]; formulation F2, HEPES",92%
same,Expression of IL-6 upon stimulation of whole human blood,"whole human blood [8]; free small molecule, 10, 1, 0.1 μM, 24 h, two donors",induced expression of IL-6 at 10 μM in donor 2
same,Expression of IL-6 upon stimulation of whole human blood,"whole human blood [8]; remote loaded in formulation F1, HEPES, drug/lipid ratio 0.1",No induction of IL-6 expression
same,Expression of IL-6 upon stimulation of whole human blood,"whole human blood [8]; remote loaded in formulation F2, HEPES, drug/lipid ratio 0.1",capable of inducing expression of IL-6 at 10 μM; also recorded: capable of inducing expression of IL-6 in both donors; also recorded: the most potent
